Assay results from ChEMBL document CHEMBL3585335, “Isolation and Synthetic Diversification of Jadomycin 4-Amino-l-phenylalanine” (J Nat Prod, 2015).
Activity calls are given as the source filed them.

Legend:
Escherichia coli [1] = test: Effect on Copper-mediated Escherichia coli pUC19 DNA cleavage at 100 uM by gel-electrophoresis analysis
Escherichia coli [2] = test: Effect on Copper-mediated Escherichia coli pBR322 DNA cleavage at 100 uM by gel-electrophoresis analysis
Escherichia coli [3] = test: Effect on photodynamic inactivation in Escherichia coli pUC19 DNA assessed as photo-mediated DNA cleavage at 10 to 100 uM by ethidium bromide gel-electrophoresis analysis

Measured: Activity

Cc1cc(O)c2c(c1)C1OC(=O)[C@H](Cc3ccc(NC(=O)COc4ccc5ccccc5c4)cc3)N1C1=C2C(=O)c2cccc(O[C@H]3C[C@@H](O)[C@@H](O)[C@H](C)O3)c2C1=O (stereo partly drawn)
inactive: all assays above
